Source: ChEMBL document CHEMBL3301361, “Experimental in vitro DMPK and physicochemical data on a set of publicly disclosed compounds”
Counter-ions that a name gives are not always drawn. Residues, ends and D or L forms follow the SMILES beside them.

Test: in vitro
Conditions: human, plasma

SMILES	fraction unbound at 5 h
C[C@@H](c1ncncc1F)[C@](O)(Cn1cncn1)c1ccc(F)cc1F [VORICONAZOLE]	0.535
COC(=O)N(C)c1c(N)nc(-c2nn(Cc3ccccc3F)c3ncccc23)nc1N [RIOCIGUAT]	0.0854
CN1CCN2c3ccccc3CC3(C(=O)N(C)C(=O)N(C)C3=O)C2C1 (configuration not stated)	0.035
COc1cc(/C=C2\SC(=O)NC2=O)ccc1Oc1ccc(C#N)cc1C(F)(F)F	0.0005
Cc1ccc(CNC(=O)CCS(=O)(=O)c2ccc(Br)cc2)cc1	0.013
COc1ccc(OC)c(C(O)CN)c1 (configuration not stated) [DESGLYMIDODRINE]	0.78

Same assay, conditions: human, plasma, PPB

SMILES	fraction unbound at 5 h
Cc1ccc(/C(=C\CN2CCCC2)c2ccccn2)cc1 [TRIPROLIDINE]	0.645
CC(C)(C)Oc1ccc(C(=O)Nc2ccc3sc(CO)nc3c2)cc1	0.051
O=C(NCC12CC3CC(CC(C3)C1)C2)c1cc(C(=O)N2CC3CNCC(C2)O3)ccc1Cl	0.309
NC1=NC(c2ccc(F)cc2)Cc2ccccc21 (configuration not stated)	0.36
O=C(Cc1cccs1)Nc1ccon1	0.563
COc1ccc2ncc(=O)n(CCN3CC[C@@H](NCc4cc5c(cn4)OCCO5)[C@@H](O)C3)c2c1	0.142
CN(CC(=O)O)NC(=O)C[C@H](N)C[C@@H](O)CN [NEGAMYCIN]	0.874
Cc1sc2c(c1C)c(=O)n(-c1ccc(F)cc1)c(=O)n2CC(=O)NCc1ccco1	0.0268
Cc1ncc(NC(=O)c2cc(NC(=O)c3cccc(Cl)c3)ccc2Cl)s1	0.002
Cc1cn([C@H]2CCCN(S(=O)(=O)c3ccc(C#N)c(Oc4cccc(Cl)c4)c3)C2)c(=O)[nH]c1=O	0.0229
CN[C@@H](C)C(=O)N[C@H](C(=O)N[C@H]1CCCN(CCc2ccc(Cl)cc2)C1)C(C)(C)C	0.0293
NC(=O)[C@H](Cc1ccccc1)NC(=O)OCc1ccccc1	0.19
CC(C)(C)c1ccc2c(c1)CC[C@H]2NC(=O)Nc1cccc2[nH]ncc12 [ABT-102]	0.0022
CN[C@@H](C)C(=O)N[C@H](C(=O)N1CCC[C@H]1C(=O)N[C@@H]1CCCc2ccccc21)C(C)(C)C	0.0801
Cc1cnc(Nc2cc(N3CCOCC3)nc(N[C@@H](C)c3ccc(F)cn3)n2)s1	0.0262
COc1cc(OC)c(S(=O)(=O)N2c3ccccc3CCC2C)cc1NC(=S)NCC(=O)O (configuration not stated)	0.309
COc1cc(OC)c(S(=O)(=O)N2c3ccccc3CC2C)cc1NC(C)=O (configuration not stated)	0.0437
O=c1[nH]cnc2scc(-c3cccs3)c12	0.0111
COCCNC(=O)c1ccc(Nc2ncc3cc(-c4ccncc4C)ccc3n2)cc1	0.0139
CCNC(=O)c1cc2c(-n3ccc(C(F)(F)F)n3)c(-c3cncc(C(=O)NC)c3)cnc2[nH]1	0.148
COc1ccc(-c2nc3c(NCCCNC(=O)c4cccnc4)c(Br)cnc3[nH]2)cc1	0.013

SMILES	fraction unbound at 5 h
O=C(O)COn1c(-c2ccccc2)nc2ccc([N+](=O)[O-])cc21	0.0139
CCNC(=O)c1cc2c(-n3ccc(C(F)(F)F)n3)c(-c3cncc(-c4n[nH]c(=O)o4)c3)cnc2[nH]1	0.0437
CCOC(=O)[C@H](CCc1ccccc1)N[C@@H](C)C(=O)N1Cc2ccccc2C[C@H]1C(=O)O	0.0418
COc1cccc(-c2cc3c(N[C@H]4CCCNC4)ncc(C(N)=O)c3s2)c1	0.0437
CNc1c(Br)cnc2[nH]c(-c3ccc(OCCN4CCOCC4)cc3)nc12	0.0149
O=C(O)c1cn(Cc2ccccc2)c2cc(N3CCNCC3)c(F)cc2c1=O	0.299
Cc1ncc(NC(=O)c2cc(NC(=O)c3cc(F)cc(C(F)(F)F)c3)ccc2Cl)s1	0.0035
COc1ncc(-c2cccc3c2C[C@H](NC(=O)c2ccc(OCCC(F)(F)F)nc2)CO3)cn1	0.0133
O=C1NCCc2[nH]c(-c3ccncc3)cc21	0.586
COC(=O)/C=C/C(=O)O [MONOMETHYL FUMARATE]	0.139
Nc1ccc(S(=O)(=O)Nc2ccnn2-c2ccccc2)cc1 [SULFAPHENAZOLE]	0.0059
Cc1ncc(NC(=O)c2cc(NC(=O)c3cccc(C(F)(F)F)c3)ccc2C)s1	0.0119
CCN(Cc1cccc2ccccc12)c1cc(N2CCOCC2)nc(=O)[nH]1	0.0358
CC(C)Oc1cc2ncc(C(N)=O)c(Nc3cccc(Cl)c3Cl)c2cc1N1CCN(C)CC1	0.0139
Cc1cc(-c2cc(=O)[nH]c(NCc3cccc4ccccc34)n2)ccn1	0.0025
CCNC(=O)c1cc2c(-n3ccc(C(F)(F)F)n3)c(-c3cncc(C(=O)O)c3)cnc2[nH]1	0.117
CN1CCN(c2ccc3ncc(C(N)=O)c(Nc4ccc(Cl)c(Cl)c4)c3c2)CC1	0.0581
Cc1nccn1-c1ccc(Sc2cccc(C3(C(N)=O)CCOCC3)c2)cc1	0.069
O=C(COc1cccc(Cl)c1)NC1CCN(Cc2ccn(-c3ccc(C(F)(F)F)cc3)c2)CC1	0.0072
COCCOc1cc2ncc(C(N)=O)c(Nc3cc(C)ccc3F)c2cc1N1CCN(C)CC1	0.163
CCn1cc(CNC(=O)c2cc(-c3ccc(C)cc3)nc3ccc(Br)cc23)c(C)n1	0.0011

SMILES	fraction unbound at 5 h
Fc1ccc(-c2c3cccc(C(F)(F)F)c3nn2Cc2ccc(F)cc2Cl)cc1 [LXR-623]	0.0006
O=C(COc1ccccc1Cl)c1ccc[nH]1	0.0676
CCCCCCCC(=O)N[C@@H](CCN)C(=O)N[C@H](C(=O)N[C@@H](C)C(=O)N[C@H]1CCNC(=O)[C@H]([C@@H](C)O)NC(=O)[C@H](CCN)NC(=O)[C@H](CCN)NC(=O)[C@H](CC(C)C)NC(=O)[C@@H](Cc2ccccc2)NC(=O)[C@H](CCN)NC1=O)[C@@H](C)O (HELM PEPTIDE1{[CCCCCCCC(=O)[*:2]].[Dab].T.A.[Dab].[Dab].[dF].L.[Dab].[Dab].T}$PEPTIDE1,PEPTIDE1,5:R3-11:R2$$$V2.0)	0.112
CCOc1cc2ncc(C(N)=O)c(Nc3ccc(F)c(Cl)c3)c2cc1N1CCN(C)CC1	0.0343
COCCNC(=O)c1ccc(Nc2ncc3cc(-c4cnccc4C)ccc3n2)cc1	0.0262
COc1ccc2ncc(=O)n(CCN3CC[C@@H](NCc4ccc5c(n4)NC(=O)CO5)[C@@H](OC)C3)c2c1	0.28
COc1cc(OC)c(S(=O)(=O)N2c3ccccc3CCC2C)cc1NC(=O)NCC(=O)O (configuration not stated)	0.28
Cc1cc(Nc2nc(N[C@@H](C)c3ncc(F)cn3)nc(N3CCOCC3)c2F)n[nH]1	0.0836
CN[C@@H](C)C(=O)N[C@H](C(=O)N[C@H]1CCCN(CCc2ccc(F)cc2)C1)C(C)(C)C	0.0784
O=C(Nc1ccc(Cl)c(C(=O)Nc2cncs2)c1)c1cccc(C(F)(F)F)c1	0.004
Cc1cn([C@H]2CCCN(S(=O)(=O)c3cccc(Oc4ccccc4)c3)C2)c(=O)[nH]c1=O	0.0262
CC(C)COc1cccc(/C=C2\SC(=O)NC2=O)c1N1CCC[C@@H](N)C1	0.0119
COc1cc(OC)c(S(=O)(=O)N2c3ccccc3CCC2C)cc1NC(=O)CSc1ccncc1 (configuration not stated)	0.0293
CC(C)NC(=O)c1cc2c(-n3ccc(C(F)(F)F)n3)c(-c3cncc(C(=O)O)c3)cnc2[nH]1	0.228
CC(C(=O)OC1CC[N+](C)(C)CC1)(c1ccccc1)N1CCCCC1 (configuration not stated)	0.78
Cc1ncc(NC(=O)c2cc(NC(=O)c3cccc(C(F)(F)F)c3)ccc2Cl)s1	0.004
CCN(CC)CCOc1ccc2c(c1)C(=O)c1cc(OCCN(CC)CC)ccc1-2 [TILORONE]	0.517
Nc1nc(OCC2CCC2)nc2c1ncn2[C@@H]1O[C@H](CF)[C@@H](O)[C@H]1O	0.228
CCNC(=O)c1cc2c(-n3ccc(C(F)(F)F)n3)c(-c3cncc(C(N)=O)c3)cnc2[nH]1	0.36
O=C(NCC12CC3CC(CC(C3)C1)C2)c1cc(OCCNCCCO)ncc1Cl	0.11
O=C(NC[C@@H](O)CN1CCC(Oc2ccc(Cl)c(Cl)c2)CC1)c1c[nH]c(=O)c2cc(F)ccc12	0.0108

SMILES	fraction unbound at 5 h
COC(=O)CCn1cc(-c2cc(NC3CC3)n3ncc(C#N)c3n2)c2cc(NC(C)=O)ccc21	0.016
CNC(=O)c1[nH]cnc1C(=O)Nc1ccc(Cl)cc1	0.0268
CCOc1cc2nnc(C(N)=O)c(Nc3ccc(F)cc3F)c2cc1N1CCN(C)CC1	0.0383
O=C(c1ccccc1)N1CCC(c2nc3ccccc3o2)CC1	0.0457
COCCOc1cc2ncc(C(N)=O)c(Nc3ccc(F)cc3F)c2cc1N1CCN(C)CC1	0.454
COc1cc(Cc2cnc(N)nc2N)cc(OC)c1OC [TRIMETHOPRIM]	0.339
CCOc1cc2ncc(C(N)=O)c(Nc3cc(F)ccc3F)c2cc1N1CCN(C)CC1	0.0736
COc1ccc(Cl)cc1NC(=O)CCS(=O)(=O)c1ccc(C)cc1	0.0219
CCCC[C@H](NC(C)=O)C(=O)N[C@H]1CC(=O)NCCCC[C@@H](C(=O)O)NC(=O)[C@H](Cc2c[nH]c3ccccc23)NC(=O)[C@H](CCCN=C(N)N)NC(=O)[C@@H](Cc2ccccc2)NC(=O)[C@H](Cc2cnc[nH]2)NC1=O [BREMELANOTIDE]	0.729
CS(=O)(=O)c1ccc(C2=C(c3ccccc3)C(=O)OC2)cc1 [ROFECOXIB]	0.069
O=C(Nc1cccc2cccnc12)c1ccc(N2C(=O)[C@@H]3[C@H](C2=O)[C@@H]2C=C[C@H]3C2)cc1	0.0111
CC(=O)Nc1cccc2c1c(Oc1ccc(Cl)cc1)c(C)n2CC(=O)O	0.124
N#Cc1c(-c2ccc(-c3ccncc3Cl)cc2)nc2ccncc2c1O	0.0055
C[C@H]1O[C@@H](n2cnc3c(N)nc(OCC4CC45CC5)nc32)[C@H](O)[C@@H]1O (some centres not stated)	0.249
CN(Cc1cnc2nc(N)nc(N)c2n1)c1ccc(C(=O)N[C@@H](CCC(=O)O)C(=O)O)cc1 [METHOTREXATE]	0.535
Cc1cnc(Nc2nc(N[C@@H](C)c3ncc(F)cn3)nc(N3CCOCC3)c2F)s1	0.069
COc1cnc(-c2ccccn2)nc1N1CCCCC1	0.0488
COCCOc1cc2ncc(C(N)=O)c(Nc3cccc(Cl)c3F)c2cc1N1CCN(C)CC1	0.392
